Experimental findings from patent publication US12565522B2, “Micropeptide HMMW and application thereof” (NANJING ANJI BIOTECHNOLOGY CO., LTD., priority 2019, dated 2026) are described below.

Assay in all cases: transwell migration test
Holding throughout (type): cell-based, human
Conditions in all cases: 24 h

Experiment [1] has as its system TE13 cells of esophageal squamous cell carcinoma.
In experiment [2] the test system is SW579 cells of thyroid cancer.
Experiment [3] relates to A549 cells of lung cancer.
For experiment [4], the system named is UOK262 cells of kidney cancer.
Experiment [5] relates to SCC4 cells of head and neck cancer.
The test system of experiment [6] is MDA-MB-231 cells of breast cancer.
For experiment [7], the system named is A431 cells of skin cancer.

No end group written: not given here.

As for “MERAGVPGFSPRRSSVEAKMQSTSCSVRKSSTVTAWPAVVLLLHTSKDDEE-OH [HMMW-II]”, the migration inhibition rate is reported as 22.74% in experiment [1] (dose 1 μM); 40.23% in experiment [1] (dose 4 μM); 65.31% in experiment [1] (dose 16 μM); 18.80% in experiment [2] (dose 1 μM); 50.13% in experiment [2] (dose 4 μM); 71.92% in experiment [2] (dose 16 μM). For the same substance, the migration inhibition rate in experiment [3] (dose 1 μM) is 34.01%; in experiment [3] (dose 4 μM) it was 52.91%; in experiment [3] (dose 16 μM) it was 72.36%; in experiment [4] (dose 1 μM) it was 16.29%; in experiment [4] (dose 4 μM), 41.28%; in experiment [4] (dose 16 μM), 70.43%. Also, the migration inhibition rate in experiment [5] (dose 1 μM) is 18.81%; in experiment [5] (dose 4 μM), 43.67%; in experiment [5] (dose 16 μM), 75.04%; in experiment [6] (dose 1 μM), 27.07%; in experiment [6] (dose 4 μM), 51.24%; in experiment [6] (dose 16 μM), 73.18%. In addition, the values for the migration inhibition rate in experiment [7] (dose 1 μM), in experiment [7] (dose 4 μM) and in experiment [7] (dose 16 μM) were 31.14%, 53.12% and 71.12%, respectively.
For “MERAGVPGFSPRRSSVEAKMQSTSCSVRKSSTVTAWPAVVLLLSWGKDDEE-OH [HMMW-IV]”, the migration inhibition rate came out at 22.76% in experiment [1] (dose 1 μM); 41.29% in experiment [1] (dose 4 μM); 65.32% in experiment [1] (dose 16 μM); 18.81% in experiment [2] (dose 1 μM); 50.03% in experiment [2] (dose 4 μM); 71.91% in experiment [2] (dose 16 μM). The migration inhibition rate in experiment [3] (dose 1 μM) is recorded as 33.00%; in experiment [3] (dose 4 μM), 52.91%; in experiment [3] (dose 16 μM), 71.46%; in experiment [4] (dose 1 μM) it was 16.32%; in experiment [4] (dose 4 μM) it was 41.38%; in experiment [4] (dose 16 μM) it was 70.47%. Also, the migration inhibition rate stood at 16.84% in experiment [5] (dose 1 μM); 43.91% in experiment [5] (dose 4 μM); 75.04% in experiment [5] (dose 16 μM); 29.06% in experiment [6] (dose 1 μM); 51.34% in experiment [6] (dose 4 μM); 73.38% in experiment [6] (dose 16 μM). Further, the migration inhibition rate in experiment [7] (dose 1 μM) was 32.19%; in experiment [7] (dose 4 μM), 54.17%; in experiment [7] (dose 16 μM), 71.24%.
Regarding “MERAGVPGFSPRRSSVEAKMQSTSCSVRKSSTVTAWPAVVLLLSWGQRDEE-OH [HMMW-VI]”, the migration inhibition rate in experiment [1] (dose 1 μM) amounted to 21.76%; in experiment [1] (dose 4 μM), 40.21%; in experiment [1] (dose 16 μM), 66.32%; in experiment [2] (dose 1 μM), 19.81%; in experiment [2] (dose 4 μM) it was 52.03%; in experiment [2] (dose 16 μM), 70.91%. Moreover, the migration inhibition rate in experiment [3] (dose 1 μM) stood at 32.00%; in experiment [3] (dose 4 μM) it was 51.90%; in experiment [3] (dose 16 μM) it was 70.46%; in experiment [4] (dose 1 μM), 17.32%; in experiment [4] (dose 4 μM), 40.38%; in experiment [4] (dose 16 μM), 72.47%. In addition, the migration inhibition rate in experiment [5] (dose 1 μM) came to 16.69%; in experiment [5] (dose 4 μM), 42.81%; in experiment [5] (dose 16 μM) it was 71.04%; in experiment [6] (dose 1 μM), 27.06%; in experiment [6] (dose 4 μM), 50.34%; in experiment [6] (dose 16 μM), 74.38%. Besides, the migration inhibition rate is 33.19% in experiment [7] (dose 1 μM), 55.17% in experiment [7] (dose 4 μM) and 70.23% in experiment [7] (dose 16 μM).
As for “MERAGVPGFSPRRSSVEAKMQSTSCSVRKSSTVTAWPAVVLLLSWGQRRGE-OH [HMMW-VIII]”, the migration inhibition rate is listed as 23.73% in experiment [1] (dose 1 μM); 42.23% in experiment [1] (dose 4 μM); 63.31% in experiment [1] (dose 16 μM); 18.81% in experiment [2] (dose 1 μM); 52.05% in experiment [2] (dose 4 μM); 70.90% in experiment [2] (dose 16 μM). In addition, the migration inhibition rate in experiment [3] (dose 1 μM) was 32.06%; in experiment [3] (dose 4 μM), 51.90%; in experiment [3] (dose 16 μM), 73.40%; in experiment [4] (dose 1 μM) it was 18.29%; in experiment [4] (dose 4 μM), 43.48%; in experiment [4] (dose 16 μM), 71.45%. The migration inhibition rate in experiment [5] (dose 1 μM) is on record as 17.80%; in experiment [5] (dose 4 μM), 42.92%; in experiment [5] (dose 16 μM), 72.35%; in experiment [6] (dose 1 μM), 26.14%; in experiment [6] (dose 4 μM), 50.24%; in experiment [6] (dose 16 μM) it was 73.32%. The migration inhibition rate in experiment [7] (dose 1 μM) turned out to be 33.10%; in experiment [7] (dose 4 μM) it was 53.37%; in experiment [7] (dose 16 μM), 71.20%.
As for “MGRAGVPGFSPRRSSVEAKMQSTSCSVRKSSTVTAWPAVVLLLSWGQRRGG-OH [HMMW-IX]”, the migration inhibition rate in experiment [1] (dose 1 μM) came to 21.76%; in experiment [1] (dose 4 μM), 40.29%; in experiment [1] (dose 16 μM), 65.32%; in experiment [2] (dose 1 μM) it was 17.81%; in experiment [2] (dose 4 μM) it was 50.03%; in experiment [2] (dose 16 μM), 71.98%. For the same substance, the migration inhibition rate worked out at 36.00% in experiment [3] (dose 1 μM); 52.95% in experiment [3] (dose 4 μM); 71.46% in experiment [3] (dose 16 μM); 17.39% in experiment [4] (dose 1 μM); 43.38% in experiment [4] (dose 4 μM); 70.47% in experiment [4] (dose 16 μM). In addition, the migration inhibition rate in experiment [5] (dose 1 μM) came out at 18.81%; in experiment [5] (dose 4 μM), 43.97%; in experiment [5] (dose 16 μM), 74.00%; in experiment [6] (dose 1 μM), 26.06%; in experiment [6] (dose 4 μM) it was 52.34%; in experiment [6] (dose 16 μM) it was 73.38%. In addition, the migration inhibition rate in experiment [7] (dose 1 μM) was 33.19%; in experiment [7] (dose 4 μM) it was 55.17%; in experiment [7] (dose 16 μM) it was 73.22%.
Regarding “MGSTGVPGFSPRRSSVEAKMQSTSCSVRKSSTVTAWPAVVLLLSWGQRRGG-OH [HMMW-VII]”, the migration inhibition rate amounted to 23.64% in experiment [1] (dose 1 μM); 41.21% in experiment [1] (dose 4 μM); 63.30% in experiment [1] (dose 16 μM); 20.80% in experiment [2] (dose 1 μM); 53.13% in experiment [2] (dose 4 μM); 70.92% in experiment [2] (dose 16 μM). The migration inhibition rate in experiment [3] (dose 1 μM) is reported as 35.01%; in experiment [3] (dose 4 μM) it was 53.91%; in experiment [3] (dose 16 μM), 71.36%; in experiment [4] (dose 1 μM), 19.24%; in experiment [4] (dose 4 μM) it was 40.21%; in experiment [4] (dose 16 μM) it was 72.40%. Also, the migration inhibition rate in experiment [5] (dose 1 μM) is given as 17.42%; in experiment [5] (dose 4 μM), 44.61%; in experiment [5] (dose 16 μM), 72.34%; in experiment [6] (dose 1 μM), 28.27%; in experiment [6] (dose 4 μM) it was 50.14%; in experiment [6] (dose 16 μM) it was 72.15%. For the same substance, the migration inhibition rate in experiment [7] (dose 1 μM) was 32.10%; in experiment [7] (dose 4 μM), 52.22%; in experiment [7] (dose 16 μM), 70.11%.
